Structures can show the parent of a compound that is named as a salt.
biological target: T1, human GPR39 receptor (Homo sapiens, UniProt O43194); assay: Measurement of intracellular calcium response in PC3 cells (FLIPR), antagonism of the C3 agonist response; assay type: cell-based; conditions: functional pKi (modified Cheng-Prusoff), inhibition of the C3 (TC-G 1008) response at EC90, 30 μM ZnCl2, read-out: fpKi activity
T1 construct: PC3 Cells, Expressing the Endogenous Human GPR39 Receptor; endogenous in cells; host or cells: PC3 (human prostate adenocarcinoma) cells
T1 sequence (O43194 1-453): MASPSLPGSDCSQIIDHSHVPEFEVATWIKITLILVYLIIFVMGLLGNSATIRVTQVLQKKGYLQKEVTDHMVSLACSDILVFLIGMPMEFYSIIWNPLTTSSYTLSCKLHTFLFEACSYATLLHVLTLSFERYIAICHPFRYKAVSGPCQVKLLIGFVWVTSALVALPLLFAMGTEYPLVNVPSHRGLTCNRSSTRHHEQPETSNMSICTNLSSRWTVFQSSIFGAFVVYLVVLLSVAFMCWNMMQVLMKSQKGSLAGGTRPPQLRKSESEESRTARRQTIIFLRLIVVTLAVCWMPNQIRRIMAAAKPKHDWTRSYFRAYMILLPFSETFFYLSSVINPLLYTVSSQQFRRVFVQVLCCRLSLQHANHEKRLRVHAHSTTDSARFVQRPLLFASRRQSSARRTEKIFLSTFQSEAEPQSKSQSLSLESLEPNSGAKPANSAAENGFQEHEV
Protocol: Human prostate adenocarcinoma (PC3) cells endogenously expressing human GPR39 receptor were seeded into black walls clear-base 384-well plates at a density of 7,500 cells per well in DM EM (Low Glucose) supplemented with 10% heat-inactivated foetal bovine serum and 1% of Pen/Strep and grown overnight at 37° C., 5% CO2. After washing with assay buffer (20 mM HEPES, 137 mM NaCI, 5.4 mM KCI, 10 mM glucose, 0.8 mM MgSO4, 1.3 mM CaCl2, 0.3 mM Na2HPO4, 0.4 mM KH2PO4 4.2 mM NaHCO3, pH 7.4), cells were incubated with Calcium-6 probe (Molecular Devices) at 37° C. for 2h and then equilibrated at RT for 30 minutes on metal block. The fluorescence was measured in real time by Fluorometric Imaging Plate Reader (FLIPR TETRA, Molecular Devices) (excitation wavelength at 470-495 nm, emission wavelength at 515-575 nm).
Compounds of invention were serially diluted in neat DMSO at 1000 fold concentrations and plated into 384-well plates and then 200-fold diluted in assay buffer containing 150 uM ZnCl2 (30 μM final concentration) and […].
Fluorescence was monitored throughout the run assay. The peak of Ca2+stimulation (baseline subtracted) was expressed as percentage of the maximal inhibition of the EC90 C3 response and was plotted versus the concentration of test compound. Curve fitting and IC50 estimations are carried out using a four-parameter logistic model using XLfit Software.
The potency of compounds was reported as functional pKi (—Log10Ki) obtained using the modified Cheng-Prusoff relationship (Cheng, Y., Prusoff, W. H. 1973.)
fKi =IC50/(1+[L]/EC50) where IC50 is the concentration of antagonist required for 50% inhibition of the maximum response, [L] is the concentration of the agonist used (EC90) and EC50 is the concentration of agonist need to induced 50% of the maximum response (obtained in each experimental plate).
An fpKi less than 5.2 is reported as “+/±”. An fpKi ranging from 5.2 to 5.9 is reported as “+”. An fpKi from 6.0 to 6.5 is reported as “++”. An fpKi from 6.6 to 7.2 is reported as “+++”. An fpKi equal to or greater than 7.3 is reported as “++++”.

Ki [nM] | SMILES
≤ 50.1 | CC1CC(C)CN(c2cc(NC(=O)C3CC3)ccc2C(=O)N2CCN(C)CC2c2ccccc2)C1 (single isomer, unassigned) [Example 68a, Syn 2R or 2S N-[3-[3,5-dimethylpiperidin-1-yl]-4-(4-methyl-2-phenylpiperazine-1-carbonyl)phenyl] cyclopropanecarboxamide]
316 to 1000 | CC1CC(C)CN(c2cc(NC(=O)C3CC3)ccc2C(=O)N2CCN(C)CC2c2ccccc2)C1 (single isomer, unassigned) [Example 68b, Syn 2R or 2S N-[3-[3,5-dimethylpiperidin-1-yl]-4-(4-methyl-2-phenylpiperazine-1-carbonyl)phenyl] cyclopropanecarboxamide]
63.1 to 251 | CC1CC(C)CN(c2cc(NC(=O)C3CC3)ccc2C(=O)N2CCN(C)CC2c2ccccc2)C1 (single isomer, unassigned) [Example 68d, Anti N-[3-[3,5-dimethylpiperidin-1-yl]-4-(4-methyl-2-phenylpiperazine-1-carbonyl)phenyl]cyclopropanecarboxamide]

Further lines, the compound ahead of its results:

SMILES | Ki [nM]
CN1CCN(C(=O)c2ccc(NC(=O)C3CC3)cc2N2CCCC2)C(c2ccccc2)C1 (single isomer, unassigned) [Example 62d, 2R or 2S N-[4-(4-methyl-2-phenylpiperazine-1-carbonyl)-3-pyrrolidin-1-ylphenyl]cyclopropanecarboxamide hydrochloride] | 63.1 to 251
CC1CCN(c2cc(NC(=O)C3CC3)ccc2C(=O)N2CCC(C(F)(F)F)CC2)C1 (single isomer, unassigned) [Example 63a, (N-[3-(3R or 3S-methylpyrrolidin-l-yl)-4-[4-(trifluoromethyl)piperidine-1-carbonyl]phenyl]cyclopropanecarboxamide] | ≤ 50.1
CC1CCN(c2cc(NC(=O)C3CC3)ccc2C(=O)N2CCN(C)CC2c2ccccc2)C1 (single isomer, unassigned) [Example 64a, (2S, 3R) or (2R, 3S) or (2R, 3R) or (2S, 3S) N-[4-(4-methyl-2-phenylpiperazine-1-carbonyl)-3-(3-methylpyrrolidin-1-yl)phenyl] cyclopropanecarboxamide] | ≤ 50.1
CC1CCN(c2cc(NC(=O)C3CC3)ccc2C(=O)N2CCN(C)CC2c2ccccc2)C1 (single isomer, unassigned) [Example 64b, (2S, 3R) or (2R, 3S) or (2R, 3R) or (2S, 3S) N-[4-(4-methyl-2-phenylpiperazine-1-carbonyl)-3-(3-methylpyrrolidin-1-yl)phenyl] cyclopropanecarboxamide] | 1260 to 6310
CC1CCN(c2cc(NC(=O)C3CC3)ccc2C(=O)N2CCN(C)CC2c2ccccc2)C1 (single isomer, unassigned) [Example 64c, (2S, 3R) or (2R, 3S) or (2R, 3R) or (2S, 3S) N-[4-(4-methyl-2-phenylpiperazine-1-carbonyl)-3-(3-methylpyrrolidin-1-yl)phenyl] cyclopropanecarboxamide] | ≤ 50.1
CC1CCN(c2cc(NC(=O)C3CC3)ccc2C(=O)N2CCN(C)CC2c2ccccc2)C1 (single isomer, unassigned) [Example 64d, (2S, 3R) or (2R, 3S) or (2R, 3R) or (2S, 3S) N-[4-(4-methyl-2-phenylpiperazine-1-carbonyl)-3-(3-methylpyrrolidin-1-yl)phenyl] cyclopropanecarboxamide] | 316 to 1000
CN1CCN(C(=O)c2ccc(NC(=O)C3CC3)cc2N2CCC3(CCC3)C2)C(c2ccccc2)C1 (single isomer, unassigned) [Example 66a, N-[3-(6-azaspiro[3.4]octan-6-yl)-4-(4-methyl-2-phenylpiperazine-1-carbonyl)phenyl]cyclopropanecarboxamide] | ≤ 50.1
CN1CCN(C(=O)c2ccc(NC(=O)C3CC3)cc2N2CCC3(CCC3)C2)C(c2ccccc2)C1 (single isomer, unassigned) [Example 66b, N-[3-(6-azaspiro[3.4]octan-6-yl)-4-(4-methyl-2-phenylpiperazine-1-carbonyl)phenyl]cyclopropanecarboxamide] | 316 to 1000

— patent US20230174484A1, “ANTAGONISTS OF GPR39 PROTEIN” (Oregon Health & Science University, priority 2020, published 2023)
